Measured values from PubChem BioAssay (NCI).
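Test compounds were applied to cells in 96-well plates for 48 hours at 5 doses. At the GI50, growth is halved. TGI is the concentration that stops growth completely.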

Experiments:
Assay in all cases: NCI-60 cell line screen, 48 h
786-0 renal = test system: 786-0 renal
A498 renal = test system: A498 renal
A549 NSCLC = test system: A549 NSCLC
ACHN renal = test system: ACHN renal
BT-549 breast = test system: BT-549 breast
CAKI-1 renal = test system: CAKI-1 renal
CCRF-CEM leukemia = test system: CCRF-CEM leukemia
COLO 205 colon = test system: COLO 205 colon
DU-145 prostate = test system: DU-145 prostate
EKVX NSCLC = test system: EKVX NSCLC
HCC-2998 colon = test system: HCC-2998 colon
HCT-116 colon = test system: HCT-116 colon
HCT-15 colon = test system: HCT-15 colon
HL-60(TB) leukemia = test system: HL-60(TB) leukemia
HOP-62 NSCLC = test system: HOP-62 NSCLC
HOP-92 NSCLC = test system: HOP-92 NSCLC
HS 578T breast = test system: HS 578T breast
HT29 colon = test system: HT29 colon
IGROV1 ovarian = test system: IGROV1 ovarian
K-562 leukemia = test system: K-562 leukemia
KM12 colon = test system: KM12 colon
LOX IMVI melanoma = test system: LOX IMVI melanoma
M14 melanoma = test system: M14 melanoma
MALME-3M melanoma = test system: MALME-3M melanoma
MCF7 breast = test system: MCF7 breast
MDA-MB-231 breast = test system: MDA-MB-231 breast
MDA-MB-435 = test system: MDA-MB-435
MOLT-4 leukemia = test system: MOLT-4 leukemia
NCI-H226 lung = test system: NCI-H226 lung
NCI-H23 lung = test system: NCI-H23 lung
NCI-H460 lung = test system: NCI-H460 lung
NCI-H522 lung = test system: NCI-H522 lung
NCI/ADR-RES ovarian = test system: NCI/ADR-RES ovarian
OVCAR-3 ovarian = test system: OVCAR-3 ovarian
OVCAR-4 ovarian = test system: OVCAR-4 ovarian
OVCAR-5 ovarian = test system: OVCAR-5 ovarian
OVCAR-8 ovarian = test system: OVCAR-8 ovarian
PC-3 prostate = test system: PC-3 prostate
RPMI-8226 leukemia = test system: RPMI-8226 leukemia
RXF 393 renal = test system: RXF 393 renal
SF-268 CNS = test system: SF-268 CNS
SF-295 CNS = test system: SF-295 CNS
SF-539 CNS = test system: SF-539 CNS
SK-MEL-2 melanoma = test system: SK-MEL-2 melanoma
SK-MEL-28 melanoma = test system: SK-MEL-28 melanoma
SK-MEL-5 melanoma = test system: SK-MEL-5 melanoma
SK-OV-3 ovarian = test system: SK-OV-3 ovarian
SN12C renal = test system: SN12C renal
SNB-19 CNS = test system: SNB-19 CNS
SNB-75 CNS = test system: SNB-75 CNS
SR leukemia = test system: SR leukemia
SW-620 colon = test system: SW-620 colon
T-47D breast = test system: T-47D breast
TK-10 renal = test system: TK-10 renal
U251 CNS = test system: U251 CNS
UACC-257 melanoma = test system: UACC-257 melanoma
UACC-62 melanoma = test system: UACC-62 melanoma
UO-31 renal = test system: UO-31 renal
MDA-N = test system: MDA-N

## Cc1cc(C)c(O)c(CNCCCCCCNCc2cc(C)cc(C)c2O)c1
786-0 renal
  GI50: 1420 nM
  TGI: 2920 nM
A498 renal
  GI50: 1320 nM
  TGI: 3.15 µM
A549 NSCLC
  GI50: 2230 nM
  TGI: 4.72 µM
ACHN renal
  GI50: 1910 nM
  TGI: 3.69 µM
BT-549 breast
  GI50: 2240 nM
  TGI: 5.52 µM
CAKI-1 renal
  GI50: 1970 nM
  TGI: 4.49 µM
CCRF-CEM leukemia
  GI50: 2190 nM
  TGI: 5.72 µM
COLO 205 colon
  GI50: 1670 nM
  TGI: 3.32 µM
DU-145 prostate
  GI50: 1700 nM
  TGI: 3.3 µM
EKVX NSCLC
  GI50: 1740 nM
  TGI: 3.65 µM
HCC-2998 colon
  GI50: 1020 nM
  TGI: 2.39 µM
HCT-116 colon
  GI50: 1730 nM
  TGI: 3.43 µM
HCT-15 colon
  GI50: 1400 nM
  TGI: 3.05 µM
HL-60(TB) leukemia
  GI50: 1840 nM
  TGI: 3770 nM
HOP-62 NSCLC
  GI50: 1770 nM
  TGI: 3.6 µM
HOP-92 NSCLC
  GI50: 1250 nM
  TGI: 4.01 µM
HS 578T breast
  GI50: 1650 nM
  TGI: 3.88 µM
HT29 colon
  GI50: 1730 nM
  TGI: 3.82 µM
IGROV1 ovarian
  GI50: 1680 nM
  TGI: 3.49 µM
K-562 leukemia
  GI50: 1610 nM
  TGI: 3.55 µM
KM12 colon
  GI50: 1820 nM
  TGI: 3.51 µM
LOX IMVI melanoma
  GI50: 1480 nM
  TGI: 2.88 µM
M14 melanoma
  GI50: 1720 nM
  TGI: 3.59 µM
MALME-3M melanoma
  GI50: 1600 nM
  TGI: 3.17 µM
MCF7 breast
  GI50: 1540 nM
  TGI: 3.22 µM
MDA-MB-231 breast
  GI50: 1380 nM
  TGI: 2.9 µM
MDA-MB-435
  GI50: 1430 nM
  TGI: 2.81 µM
MOLT-4 leukemia
  GI50: 1720 nM
  TGI: 3.9 µM
NCI-H226 lung
  GI50: 1830 nM
  TGI: 3.72 µM
NCI-H23 lung
  GI50: 1700 nM
  TGI: 3.28 µM
NCI-H460 lung
  GI50: 1890 nM
  TGI: 3.58 µM
NCI-H522 lung
  GI50: 1780 nM
  TGI: 3.67 µM
NCI/ADR-RES ovarian
  GI50: 1850 nM
  TGI: 3.86 µM
OVCAR-3 ovarian
  GI50: 1640 nM
  TGI: 3.42 µM
OVCAR-4 ovarian
  GI50: 1510 nM
  TGI: 3.75 µM
OVCAR-5 ovarian
  GI50: 1820 nM
  TGI: 4.31 µM
OVCAR-8 ovarian
  GI50: 2200 nM
  TGI: 5010 nM
PC-3 prostate
  GI50: 1990 nM
  TGI: 4.28 µM
RPMI-8226 leukemia
  GI50: 1940 nM
  TGI: 4960 nM
RXF 393 renal
  GI50: 1590 nM
  TGI: 3.08 µM
SF-268 CNS
  GI50: 1610 nM
  TGI: 3.36 µM
SF-295 CNS
  GI50: 1780 nM
  TGI: 3.46 µM
SF-539 CNS
  GI50: 1620 nM
  TGI: 3.17 µM
SK-MEL-2 melanoma
  GI50: 1910 nM
  TGI: 3.67 µM
SK-MEL-28 melanoma
  GI50: 1660 nM
  TGI: 3.28 µM
SK-MEL-5 melanoma
  GI50: 1610 nM
  TGI: 3.09 µM
SK-OV-3 ovarian
  GI50: 1830 nM
  TGI: 3.67 µM
SN12C renal
  GI50: 1830 nM
  TGI: 3920 nM
SNB-19 CNS
  GI50: 1980 nM
  TGI: 4.59 µM
SNB-75 CNS
  GI50: 1330 nM
  TGI: 2630 nM
SR leukemia
  GI50: 1340 nM
  TGI: 3.84 µM
SW-620 colon
  GI50: 1810 nM
  TGI: 3.56 µM
T-47D breast
  GI50: 1500 nM
  TGI: 3.36 µM
TK-10 renal
  GI50: 1390 nM
  TGI: 2.92 µM
U251 CNS
  GI50: 1580 nM
  TGI: 3.07 µM
UACC-257 melanoma
  GI50: 2070 nM
  TGI: 4.13 µM
UACC-62 melanoma
  GI50: 1820 nM
  TGI: 3.41 µM
UO-31 renal
  GI50: 1420 nM
  TGI: 2.83 µM

## Cc1cccc(/C=N/NC(=S)N2CCCCCC2)n1
786-0 renal
  TGI: 775 nM
A498 renal
  TGI: 13.5 µM
A549 NSCLC
  TGI: 17.2 µM
ACHN renal
  TGI: 1.71 µM
BT-549 breast
  TGI: 14.4 µM
CAKI-1 renal
  TGI: 8.86 µM
COLO 205 colon
  TGI: 0.632 µM
EKVX NSCLC
  TGI: 9.32 µM
HCC-2998 colon
  TGI: > 100 µM
HCT-116 colon
  TGI: 0.11 µM
HCT-15 colon
  TGI: > 36.3 µM
HL-60(TB) leukemia
  TGI: 241 nM
HOP-62 NSCLC
  TGI: 1.01 µM
HOP-92 NSCLC
  TGI: > 89.1 µM
HS 578T breast
  TGI: > 100 µM
HT29 colon
  TGI: > 40 µM
IGROV1 ovarian
  TGI: 1.55 µM
K-562 leukemia
  TGI: > 100 µM
KM12 colon
  TGI: > 44.7 µM
LOX IMVI melanoma
  TGI: 17 µM
M14 melanoma
  TGI: 0.441 µM
MALME-3M melanoma
  TGI: 25.3 µM
MDA-MB-231 breast
  TGI: 15.2 µM
MDA-MB-435
  TGI: 38.9 µM
MDA-N
  TGI: > 45.9 µM
NCI-H226 lung
  TGI: 7.46 µM
NCI-H23 lung
  TGI: > 37.1 µM
NCI-H460 lung
  TGI: 1.18 µM
NCI-H522 lung
  TGI: 0.788 µM
NCI/ADR-RES ovarian
  TGI: 0.202 µM
OVCAR-5 ovarian
  TGI: > 72.2 µM
OVCAR-8 ovarian
  TGI: 428 nM
PC-3 prostate
  TGI: > 72.5 µM
RPMI-8226 leukemia
  TGI: 374 nM
RXF 393 renal
  TGI: 38.9 µM
SF-295 CNS
  TGI: 31.7 µM
SF-539 CNS
  TGI: 0.549 µM
SK-MEL-2 melanoma
  TGI: 19.2 µM
SK-MEL-28 melanoma
  TGI: > 100 µM
SK-MEL-5 melanoma
  TGI: 2 µM
SN12C renal
  TGI: 805 nM
SNB-19 CNS
  TGI: > 100 µM
SNB-75 CNS
  TGI: 758 nM
SW-620 colon
  TGI: > 100 µM
T-47D breast
  TGI: > 100 µM
TK-10 renal
  TGI: 4.8 µM
UACC-257 melanoma
  TGI: 1.91 µM
UACC-62 melanoma
  TGI: 1.08 µM
UO-31 renal
  TGI: 9.91 µM

## C=CCn1c(-c2ccccc2)cs/c1=N\C(P(=O)(O)O)P(=O)(O)O
786-0 renal
  TGI: > 100000 nM
A549 NSCLC
  TGI: > 100 µM
ACHN renal
  TGI: > 100 µM
BT-549 breast
  TGI: > 100 µM
CAKI-1 renal
  TGI: > 100 µM
COLO 205 colon
  TGI: > 100 µM
DU-145 prostate
  TGI: > 100 µM
EKVX NSCLC
  TGI: > 100 µM
HCC-2998 colon
  TGI: > 100 µM
HCT-116 colon
  TGI: > 100 µM
HCT-15 colon
  TGI: > 100 µM
HOP-62 NSCLC
  TGI: > 100 µM
IGROV1 ovarian
  TGI: > 100 µM
KM12 colon
  TGI: > 100 µM
LOX IMVI melanoma
  TGI: > 100 µM
M14 melanoma
  TGI: > 100 µM
MALME-3M melanoma
  TGI: > 100 µM
MCF7 breast
  TGI: > 100 µM
MDA-MB-231 breast
  TGI: > 100 µM
MDA-N
  TGI: > 100 µM
NCI-H226 lung
  TGI: > 100 µM
NCI-H23 lung
  TGI: > 100 µM
NCI-H460 lung
  TGI: > 100 µM
NCI-H522 lung
  TGI: > 100 µM
NCI/ADR-RES ovarian
  TGI: > 100 µM
OVCAR-3 ovarian
  TGI: > 100 µM
OVCAR-5 ovarian
  TGI: > 100 µM
PC-3 prostate
  TGI: > 100 µM
RXF 393 renal
  TGI: > 100 µM
SF-268 CNS
  TGI: > 100 µM
SF-295 CNS
  TGI: > 100 µM
SF-539 CNS
  TGI: > 100 µM
SK-MEL-5 melanoma
  TGI: > 100 µM
SK-OV-3 ovarian
  TGI: > 100 µM
SNB-19 CNS
  TGI: > 100 µM
TK-10 renal
  TGI: > 100 µM
UACC-257 melanoma
  TGI: > 100 µM
UACC-62 melanoma
  TGI: > 100 µM
UO-31 renal
  TGI: > 100 µM
